This note sets out measurements from ChEMBL document CHEMBL5584296, “Discovery of Novel Pyrimidine-Based Derivatives as Nav1.2 Inhibitors with Efficacy in Mouse Models of Epilepsy” (J Med Chem, 2024).

In series [1] the target is Sodium channel protein type 2 subunit alpha (Homo sapiens, UniProt Q99250). Nature of the series: Inhibition of human Nav1.2 expressed in HEK293 cells at -120 mv holding potential measured after 5 mins by whole cell voltage clamp electrophysiological analysis. Format: cell-based.
Series [2] addresses Sodium channel protein type 1 subunit alpha (Homo sapiens) (UniProt P35498). Put plainly: Inhibition of human Nav1.1 expressed in HEK293 cells assessed as test to control ratio at 1 uM by whole cell voltage clamp electrophysiological analysis. Format: cell-based.
In series [3] the target is Sodium channel protein type 8 subunit alpha (Homo sapiens) (UniProt Q9UQD0). Put plainly: Inhibition of human Nav1.6 expressed in CHO cells assessed as test to control ratio at 0.1 uM by whole cell voltage clamp electrophysiological analysis. Format: cell-based.
The nature of series [4]: MRT (0 to infinity) in male ICR mouse at 20 mg/kg, po measured after 24 hrs by LC-MS/MS analysis. To be noted: in vivo. Type of series: ADME, organism-based.
A short description of series [5]: Cmax in male ICR mouse at 10 mg/kg, ip measured after 24 hrs by LC-MS/MS analysis. Format: ADME, organism-based. To be noted: in vivo.
Series [6] can be described thus: AUC (0 to infinity) in male ICR mouse at 10 mg/kg, ip measured after 24 hrs by LC-MS/MS analysis. As to conditions: in vivo. Format: ADME, organism-based.
Series [7] can be described thus: AUC (0 to infinity) in male ICR mouse at 1 mg/kg, iv measured after 24 hrs by LC-MS/MS analysis. Type of series: ADME, organism-based. To be noted: in vivo.
Series [8] can be described thus: Clearance in male ICR mouse at 1 mg/kg, iv measured after 24 hrs by LC-MS/MS analysis. Format: ADME, organism-based. To be noted: in vivo.
Series [9] can be described thus: Drug concentration in male ICR mouse plasma at 20 mg/kg, po measured after 0.25 hrs by LC-MS/MS analysis. Type of series: ADME, organism-based.
A short description of series [10]: Drug concentration in male ICR mouse plasma at 20 mg/kg, po measured after 0.5 hrs by LC-MS/MS analysis. Format: ADME, organism-based.
A short description of series [11]: Drug concentration in male ICR mouse plasma at 10 mg/kg, ip measured after 0.25 hrs by LC-MS/MS analysis. Format: ADME, organism-based.
Series [12] can be described thus: Ratio of drug concentration in male ICR mouse brain to plasma at 20 mg/kg, po measured after 0.25 hrs by LC-MS/MS analysis. To be noted: read-out: BPR. Type of series: ADME, organism-based.
In series [13] the test system is Mus musculus. Nature of the series: Antiepileptic activity in MES-induced seizure male ICR mouse model assessed as protection against tonic hind limb extension at 10 mg/kg, ip measured after 30 mins relative to control. As to conditions: 0.5 h. Format: functional.
Series [14] has as its system Mus musculus. Nature of the series: Antiepileptic activity in MES-induced seizure male ICR mouse model assessed as protection against tonic hind limb extension administered intraperitoneally for 30 mins. Format: functional. As to conditions: 0.5 h, route ip.
The subject of series [15] is Mus musculus. Nature of the series: Antiepileptic activity in 6 Hz(32 mA)-induced seizure male C57BL mouse model assessed as protection against seizure at 50 mg/kg, ip administered for 30 mins by epilepsy test. Format: functional. As to conditions: 0.5 h.
The subject of series [16] is Mus musculus. Nature of the series: Antiepileptic activity in 6 Hz(32 mA)-induced seizure male C57BL mouse model assessed as reduction in seizure time at 100 mg/kg, ip administered for 30 mins by epilepsy test (reference value: 22.7 +/- 1.6 sec). Format: functional. To be noted: 0.5 h.

pIC50: −log10 of the molar value.

Chain of Sodium channel protein type 2 subunit alpha (Q99250 whole entry): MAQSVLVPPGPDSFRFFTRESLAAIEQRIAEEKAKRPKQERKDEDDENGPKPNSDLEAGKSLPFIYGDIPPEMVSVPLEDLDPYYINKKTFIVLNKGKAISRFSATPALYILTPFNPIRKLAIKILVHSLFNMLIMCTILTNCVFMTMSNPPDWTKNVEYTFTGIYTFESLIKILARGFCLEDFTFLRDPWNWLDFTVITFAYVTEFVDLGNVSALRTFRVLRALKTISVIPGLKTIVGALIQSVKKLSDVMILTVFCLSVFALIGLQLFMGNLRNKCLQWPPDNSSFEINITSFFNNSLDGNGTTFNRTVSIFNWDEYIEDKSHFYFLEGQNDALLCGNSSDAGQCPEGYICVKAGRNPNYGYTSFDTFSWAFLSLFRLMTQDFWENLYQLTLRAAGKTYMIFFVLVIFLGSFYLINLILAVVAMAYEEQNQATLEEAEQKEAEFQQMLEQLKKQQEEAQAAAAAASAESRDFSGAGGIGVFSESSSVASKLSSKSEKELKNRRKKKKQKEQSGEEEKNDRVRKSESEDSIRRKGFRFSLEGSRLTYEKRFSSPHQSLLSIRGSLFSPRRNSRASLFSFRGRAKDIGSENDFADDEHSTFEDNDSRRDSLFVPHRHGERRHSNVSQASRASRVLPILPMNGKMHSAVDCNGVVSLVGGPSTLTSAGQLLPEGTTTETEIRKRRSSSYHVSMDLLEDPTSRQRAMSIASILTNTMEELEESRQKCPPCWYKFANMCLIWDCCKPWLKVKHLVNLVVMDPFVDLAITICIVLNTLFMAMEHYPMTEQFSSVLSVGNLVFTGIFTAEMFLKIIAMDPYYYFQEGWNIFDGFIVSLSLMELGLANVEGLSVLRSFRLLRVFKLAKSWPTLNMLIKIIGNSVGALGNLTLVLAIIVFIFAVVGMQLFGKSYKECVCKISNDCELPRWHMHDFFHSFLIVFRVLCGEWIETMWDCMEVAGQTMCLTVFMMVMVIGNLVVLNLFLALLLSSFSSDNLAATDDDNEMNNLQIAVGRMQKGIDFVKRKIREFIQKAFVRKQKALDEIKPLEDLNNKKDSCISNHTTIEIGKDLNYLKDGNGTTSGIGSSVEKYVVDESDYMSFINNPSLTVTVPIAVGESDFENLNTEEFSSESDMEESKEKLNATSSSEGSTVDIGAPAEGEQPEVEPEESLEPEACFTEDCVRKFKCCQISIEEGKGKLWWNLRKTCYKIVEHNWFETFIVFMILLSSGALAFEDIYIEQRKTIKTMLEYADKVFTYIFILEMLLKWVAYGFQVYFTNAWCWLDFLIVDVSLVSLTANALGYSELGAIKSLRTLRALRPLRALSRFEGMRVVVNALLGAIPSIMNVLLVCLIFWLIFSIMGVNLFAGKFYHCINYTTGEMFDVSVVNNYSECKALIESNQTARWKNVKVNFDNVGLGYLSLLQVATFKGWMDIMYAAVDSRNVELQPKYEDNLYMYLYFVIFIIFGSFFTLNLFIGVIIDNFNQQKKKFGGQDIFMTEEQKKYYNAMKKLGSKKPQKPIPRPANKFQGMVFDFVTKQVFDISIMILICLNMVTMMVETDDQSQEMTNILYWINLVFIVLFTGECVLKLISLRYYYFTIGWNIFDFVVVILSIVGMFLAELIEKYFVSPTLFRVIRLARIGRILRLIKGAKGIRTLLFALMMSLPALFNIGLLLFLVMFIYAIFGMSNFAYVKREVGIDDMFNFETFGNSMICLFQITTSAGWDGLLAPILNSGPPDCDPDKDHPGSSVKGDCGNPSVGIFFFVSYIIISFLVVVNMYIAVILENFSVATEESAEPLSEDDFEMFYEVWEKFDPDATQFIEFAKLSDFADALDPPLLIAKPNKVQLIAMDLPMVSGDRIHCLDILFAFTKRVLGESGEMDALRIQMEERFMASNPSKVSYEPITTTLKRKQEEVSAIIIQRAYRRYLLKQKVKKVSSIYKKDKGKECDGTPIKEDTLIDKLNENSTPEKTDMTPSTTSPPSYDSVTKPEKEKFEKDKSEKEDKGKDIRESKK
Chain of Sodium channel protein type 8 subunit alpha (Homo sapiens) (Q9UQD0 whole entry, looked up): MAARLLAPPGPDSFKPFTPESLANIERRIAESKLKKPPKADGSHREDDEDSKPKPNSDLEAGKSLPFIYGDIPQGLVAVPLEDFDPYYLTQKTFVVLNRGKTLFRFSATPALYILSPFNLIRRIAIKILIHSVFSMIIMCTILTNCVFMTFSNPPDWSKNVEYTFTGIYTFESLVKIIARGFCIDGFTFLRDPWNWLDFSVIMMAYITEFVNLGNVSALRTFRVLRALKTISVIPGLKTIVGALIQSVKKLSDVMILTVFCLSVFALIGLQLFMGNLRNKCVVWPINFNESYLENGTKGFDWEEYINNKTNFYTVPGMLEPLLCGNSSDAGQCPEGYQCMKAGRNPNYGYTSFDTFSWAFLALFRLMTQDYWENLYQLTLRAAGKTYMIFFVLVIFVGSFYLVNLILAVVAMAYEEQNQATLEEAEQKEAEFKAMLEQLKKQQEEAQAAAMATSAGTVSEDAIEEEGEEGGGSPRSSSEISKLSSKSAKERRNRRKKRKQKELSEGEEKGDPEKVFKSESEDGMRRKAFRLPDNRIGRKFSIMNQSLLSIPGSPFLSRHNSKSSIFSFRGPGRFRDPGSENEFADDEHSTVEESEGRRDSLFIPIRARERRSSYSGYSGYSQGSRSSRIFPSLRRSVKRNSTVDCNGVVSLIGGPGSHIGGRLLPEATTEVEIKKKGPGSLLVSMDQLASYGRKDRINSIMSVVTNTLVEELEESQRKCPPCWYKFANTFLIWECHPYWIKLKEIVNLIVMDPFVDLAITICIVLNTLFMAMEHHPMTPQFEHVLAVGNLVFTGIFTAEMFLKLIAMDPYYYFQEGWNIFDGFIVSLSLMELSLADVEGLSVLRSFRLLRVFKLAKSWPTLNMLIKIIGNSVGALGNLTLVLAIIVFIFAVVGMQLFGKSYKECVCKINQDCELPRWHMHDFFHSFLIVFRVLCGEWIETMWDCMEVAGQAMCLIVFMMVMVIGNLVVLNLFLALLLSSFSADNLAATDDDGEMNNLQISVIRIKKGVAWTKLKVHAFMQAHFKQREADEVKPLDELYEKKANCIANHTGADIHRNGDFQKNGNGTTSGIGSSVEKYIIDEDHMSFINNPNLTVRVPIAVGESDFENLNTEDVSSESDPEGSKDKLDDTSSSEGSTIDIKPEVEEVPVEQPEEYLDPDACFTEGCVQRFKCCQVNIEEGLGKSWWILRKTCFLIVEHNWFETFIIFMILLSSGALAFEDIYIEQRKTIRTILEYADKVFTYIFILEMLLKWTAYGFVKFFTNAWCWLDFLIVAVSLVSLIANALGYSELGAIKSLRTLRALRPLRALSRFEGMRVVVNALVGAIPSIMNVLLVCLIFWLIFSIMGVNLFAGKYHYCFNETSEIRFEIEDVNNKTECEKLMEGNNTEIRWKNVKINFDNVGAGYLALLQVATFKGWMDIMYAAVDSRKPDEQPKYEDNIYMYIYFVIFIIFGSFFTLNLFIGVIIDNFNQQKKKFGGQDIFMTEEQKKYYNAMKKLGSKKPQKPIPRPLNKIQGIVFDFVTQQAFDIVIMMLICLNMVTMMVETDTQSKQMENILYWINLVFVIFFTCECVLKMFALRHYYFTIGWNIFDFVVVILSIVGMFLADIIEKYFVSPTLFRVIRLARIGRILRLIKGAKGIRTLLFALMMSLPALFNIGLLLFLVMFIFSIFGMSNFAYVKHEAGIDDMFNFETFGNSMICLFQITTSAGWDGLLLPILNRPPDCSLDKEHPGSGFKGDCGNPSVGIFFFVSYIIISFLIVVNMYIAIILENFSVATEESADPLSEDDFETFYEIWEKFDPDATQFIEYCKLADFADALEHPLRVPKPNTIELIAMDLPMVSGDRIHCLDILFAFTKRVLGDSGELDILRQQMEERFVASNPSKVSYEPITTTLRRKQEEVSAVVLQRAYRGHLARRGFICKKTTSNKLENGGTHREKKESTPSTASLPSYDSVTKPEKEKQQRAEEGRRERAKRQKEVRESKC

As for `COc1cccc(-c2cc(N3CCCc4ccccc4C3)nc(N)n2)c1`, the pIC50 in [1] is 4.96. The T/C in series [2] came to 0.03; in series [3], 0.53. Moreover, the MRT inf in [4] amounted to 2.16 h. Also, in [5], the concentration peaked (Cmax) at 956 ng/mL. Moreover, the AUC(0-inf) in [6] was 793 ng·h/mL; in [7] it was 184 ng·h/mL. Besides, the clearance in [8] stood at 92.1 mL/min/kg. For the same compound, the concentration at 0.25 h in series [9] came out at 166 ng/mL; in series [11] it was 620 ng/mL. In [10], this compound displayed a concentration at 0.5 h of 18.3 ng/mL. Further, in [12], the Kp at 0.25 h was 3.9. For the same compound, the values for the Activity in [13] and in [15] were 88% and 0%, respectively. Also, the ED50 in series [14] turned out to be 3.2 mg/kg. For the same compound, the Time in series [16] is 12.9 s.

What is called pIC50 is the IC50 on a negative log10 scale, so that one unit is a factor of ten. A high value points to a low IC50. The term MRT inf denotes a mean duration of stay, worked out from the concentration-time curve. In general, Cmax refers to the peak of the concentration-time curve. As a reminder, the AUC(0-inf) is the area under the concentration-time curve extrapolated to infinity. Read a high AUC(0-inf) as high exposure. What is called clearance is the volume of plasma or blood freed of the substance per unit of time. One may read the ED50 as the midpoint of the dose-response relation.
